Results from patent publication US20210054323A1, “INNERVATED INTESTINE ON CHIP” (EMULATE, Inc., priority 2018, published 2021).

What was measured:
[1] = tested on: human iPS-derived sensory neurons (Nociceptors); assay: Live calcium imaging (Fluo-4 AM) of Nociceptors on-chip after capsaicin irritation; format: cell-based; settings: capsaicin 1 μM, sensory neurons in apical channel
Protocol: Irritation (as pain simulation) to sensory neurons on-chip was induced by capsaicin (1 μM in DMEM/F12 with 10% FBS, supplemented with BDNF, GDNF, NGF, NT-3 (25 ng/ml each) and Ascorbic Acid (200 μM)) in order to recapitulate the sensation of burning (heat) felt by humans exposed to capsaicin. Nociceptors responded to capsaicin, as shown by live imaging of calcium using Fluo-4 AM, see FIGS. 28C and 28D. Fluo-4 AM refers to a calcium sensitive fluorescent dye, loaded onto the sensory neurons. Intracellular calcium fluctuations were monitored over time using high-speed imaging. Acquisition protocols, for the example shown herein, consisted of 5-minute time-lapse sequences of Fluo-4 fluorescence. Alterations in fluorescence as a function of time were measured at a single wavelength (Fluo-4). Analysis and processing, as well as playback of the image sequences for visual inspection, was made using ImageJ/FIJI software. To visualize the spatial and temporal changes in, the raw sequences were processed to highlight changes in fluorescence intensity between frames. Regions of interest over the field of view were selected, and the mean pixel intensity at each frame was measured. The data was first plotted as fluorescence intensity versus and subsequently converted to a relative scale (ΔF/F baseline)

[2] = tested on: Human Dermal Microvascular Endothelial Cells (HMVEC-D); assay: Vascular permeability, 3 kDa Dextran leakage from basal into apical channel of Nociceptors-Chip; format: cell-based; settings: capsaicin 200 nM apical, simultaneously with inflammatory mediators (each 5 μM) basal, 3 hours
Protocol: In one embodiment, endothelial cells were seeded into the basal channel, e.g. Human Dermal Microvascular Endothelial Cells (HMVEC-D), i.e. Primary Dermal Microvascular Endothelial Cells; Normal, Human, Neonatal (HDMVECn) (e.g. ATCC® PCS-110-010™). However, it is not meant to limit the source of HMVEC, such that Primary Dermal Microvascular Endothelial Cells may be obtained from neonatal biopsies, e.g. foreskins. Prior to seeding, basal channels were coated with a thin rat collagen coating. Rat collagen was diluted in distillated water to obtain a final protein concentration at 150 μg/mL−1. The basal channel was coated by incubating the channel in collagen solution at 4° C. overnight. Unattached rat collagen was washed away with PBS, then culture medium was flowed in to cover the coated membrane to replace the PBS.
This model was further developed, as described herein, successfully simulating the process of sensitization that leads to pathological pain by the addition of inflammatory mediators to endothelial media perfused through the vascular channel. […]
Another readout is obtained by using Dextran (3 kDa) permeability, where Dextran is added to the basal channel then after 24 hours, effluent from the apical channel was collected for measuring the amount of Dextran that diffused through the endothelial barrier into the neuronal channel. […]

[3] = tested on: human iPS-derived sensory neurons (Nociceptors); assay: Substance P release into apical channel effluent of Nociceptors-Chip; format: cell-based
Protocol: Chemical stimulation of Nociceptors with Capsaicin (e.g. 1 μM), perfused for 3 hours, was followed by effluent collected from the apical channel (neuronal). This Capsaicin treatment elicited the release of substance P, a pain neurotransmitter. […] This model was further developed, as described herein, successfully simulating the process of sensitization that leads to pathological pain by the addition of inflammatory mediators to endothelial media perfused through the vascular channel. As one example, 5 μM each of Prostaglandin E2, bradykinin, serotonin and histamine in Vascular Cell Basal Medium (ATCC® PCS-100-030™) with Microvascular Endothelial Cell Growth Kit-VEGF (ATCC® PCS-110-041™) was perfused through the vascular channel. In other words, this model is intended to simulate peripheral sensitization of Nociceptors. Capsaicin (200 nM) and inflammatory mediators (each 5 μM) were perfused for 3 hours, and the effluents were collected from the apical channel (neuronal). See, FIG. 30A for an exemplary schematic diagram. […] At the same time, inflammatory mediators, i.e. Prostaglandin E2, bradykinin, serotonin and histamine (each 5 μM in media), were added to the inlet of the basal channel. The effluent was collected from the outlet of the apical channel after 3 hours (t=3 h).

endothelial cells = assay: Real-time TEER measurement in BBB-chip; format: cell-based; settings: BBB-chip under flow, after TNF-a challenge
Source text: TEER measures the resistance to pass current across one or more cell layers on a membrane. Specifically, this electrical resistance is a direct measurement of the resistance of the cell monolayer to the transport of ions. The measurement may be affected by the pore size and density of the membrane, but it aims to ascertain cell and/or tissue properties. The TEER value is considered a good measure of the integrity of a cell monolayer.
The barrier function of the same BBB-chip measured by flowing a fluorescent molecule on one side of the chip and measuring how much of the molecules crosses the endothelial cells, FIG. 23B (middle). The resolution of this measurement is limited by the time it takes for a sufficient sample to flow through the chip. A model of an exemplary TEER-Chip design FIG. 23C (right) utilizing electrodes oriented in a manner that allows electrical resistance of the cells on the membrane to be measured in real-time.

[4] = tested on: iPSC-derived human brain microvascular endothelial cells; assay: Inflamed Brain-Chip: endothelial morphology (ZO-1) and Dextran leakage after TNF-α in vascular channel; format: cell-based
Protocol: In one embodiment to provide an innervated human brain chip having intact barrier function, induced pluripotent stem cells (iPSC)-derived cortical neurons, including populations of Glutamatergic neurons and GABAergic neurons, human primary astrocytes, and human primary pericytes were seeded into the neuronal channel (upper chamber), and iPSC-derived human brain microvascular endothelial cells in the vascular channel (lower chamber).
The vascular channel was directly stimulated the vascular channel at two concentrations of TNF-α.

astrocytes = assay: Brain-Chip GFAP expression after TNF-α perfused into neuronal channel; format: cell-based, human; settings: TNF-α 100 ng/ml perfused into neuronal channel; up to 24 hours after stimulation
Protocol: TNF-α (100 ng/ml) or vehicle was perfused into the neuronal channel.

| Compound | Nociceptor response by live imaging of calcium, change in fluorescence (ΔF/F) [1] | Vascular permeability (leakage of 3 kDa Dextran into the apical channel) [2] | Substance P released in the apical channel effluent ([3]; capsaicin 200 nM apical, with inflammatory mediators (Prostaglandin E2, bradykinin, serotonin, histamine, each 5 μM) basal, 3 hours) | Substance P released in the apical channel effluent ([3]; capsaicin 1 μM perfused through apical channel for 3 hours) | Barrier function by real-time TEER (endothelial cells) | Percent leakage of Dextran into the apical channel (paracellular permeability) vs control ([4]; TNF-α 100 ng/ml and 1 ug/ml in vascular channel, 16 hours) | Endothelial cell morphology (ZO-1 expression) ([4]; TNF-α in vascular channel for 16 hours, 100 ng/ml and 1 ug/ml) | GFAP expression (optical intensity of GFAP staining) (astrocytes) |
| --- | --- | --- | --- | --- | --- | --- | --- | --- |
| COc1cc(CNC(=O)CCCC/C=C/C(C)C)ccc1O [capsaicin, trans-8-methyl-N-vanillyl-6-nonenamide] | responded | significant increase | significant increase | significant increase | – | – | – | – |
| TNF-α | – | – | – | – | abrupt drop | significantly higher | induces changes | significantly increases |
